# From article PMC7567334 (Environmental Health Perspectives, 2020)
# pEC50, pIC50: −log10 of the molar value. Values joined by “and” are separate entries in the source; they are usually repeats but may differ in a detail not shown here. Identical values can stand only once. Like-named read-outs stand apart in the source and are kept apart here.
# Columns and labels:
# TRα and TRβ [1] = experiment: GH3.TRE-Luc TR reporter assay, antagonist setup (0.25 nM T3); format: cell-based, rat
# firefly luciferase = molecular target: T1, firefly luciferase (Photinus pyralis, UniProt P08659); experiment: Luciferase inhibition assay in GH3.TRE-Luc cell lysates; format: biochemical; conditions: cell lysate; for inhibition at 50 µM: read-out: inhibition of firefly luciferase luminescence signal
# T1 construct: Only implied by 'CP' in the vector name, from my own knowledge; expressed in transfected cells; host or cells: GH3.TRE-Luc cells induced with 0.25 nM T3, lysate
# T1 sequence (P08659 whole entry): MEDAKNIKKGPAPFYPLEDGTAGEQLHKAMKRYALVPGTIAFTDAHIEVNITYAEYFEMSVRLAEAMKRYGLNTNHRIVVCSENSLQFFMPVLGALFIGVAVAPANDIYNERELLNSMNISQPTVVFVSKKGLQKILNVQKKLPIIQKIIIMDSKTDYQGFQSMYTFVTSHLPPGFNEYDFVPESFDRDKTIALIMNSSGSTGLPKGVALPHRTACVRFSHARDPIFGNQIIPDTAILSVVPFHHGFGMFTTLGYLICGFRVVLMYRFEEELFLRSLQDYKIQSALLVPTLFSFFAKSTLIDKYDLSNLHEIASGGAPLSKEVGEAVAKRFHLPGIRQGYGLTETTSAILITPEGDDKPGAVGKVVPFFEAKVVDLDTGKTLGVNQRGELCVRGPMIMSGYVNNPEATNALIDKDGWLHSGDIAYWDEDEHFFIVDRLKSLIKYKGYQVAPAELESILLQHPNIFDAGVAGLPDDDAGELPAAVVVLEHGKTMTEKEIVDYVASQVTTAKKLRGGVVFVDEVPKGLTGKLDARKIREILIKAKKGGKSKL
# Experimental: Serial dilutions for each treatment were prepared in the cell lysate and incubated at room temperature for 30 min.
# Estrogen receptor-α = conditions: YES/YAS tests; ref Westlund and Yargeau 2017; cited from earlier work
# human (h) ERα = molecular target: T2, human (h) ERα (Homo sapiens, UniProt P03372); experiment: hERα-HeLa-9903 transactivation assay, agonist setup; format: cell-based; design: host or cells: hERα-HeLa-9903 (HeLa derived); conditions: for higher ERα RTA than vehicle control: vs 0.1% DMSO
# T2 sequence (P03372 1-595): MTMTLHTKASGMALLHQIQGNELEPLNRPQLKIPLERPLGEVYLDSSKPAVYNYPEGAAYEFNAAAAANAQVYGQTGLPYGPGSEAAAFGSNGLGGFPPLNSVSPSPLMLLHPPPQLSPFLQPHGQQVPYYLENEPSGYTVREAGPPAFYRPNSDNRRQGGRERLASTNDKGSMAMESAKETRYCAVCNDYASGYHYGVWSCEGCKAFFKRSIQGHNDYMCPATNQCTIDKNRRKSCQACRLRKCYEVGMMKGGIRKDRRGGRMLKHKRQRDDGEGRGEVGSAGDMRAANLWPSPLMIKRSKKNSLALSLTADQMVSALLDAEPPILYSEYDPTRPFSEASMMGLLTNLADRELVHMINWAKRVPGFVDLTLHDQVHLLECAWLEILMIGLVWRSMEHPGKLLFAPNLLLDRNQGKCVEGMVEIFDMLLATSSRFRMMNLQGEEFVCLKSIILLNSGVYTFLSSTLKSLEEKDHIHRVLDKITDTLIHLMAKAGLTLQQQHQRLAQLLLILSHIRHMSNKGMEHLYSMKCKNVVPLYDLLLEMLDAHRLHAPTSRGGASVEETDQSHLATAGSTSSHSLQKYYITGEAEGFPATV
# human (h)AR = molecular target: T3, human (h)AR (Homo sapiens, UniProt P10275); experiment: AR-EcoScreen hAR transcriptional activation assay, antagonist setup (500 pM DHT); format: cell-based
# T3 sequence (P10275 1-920): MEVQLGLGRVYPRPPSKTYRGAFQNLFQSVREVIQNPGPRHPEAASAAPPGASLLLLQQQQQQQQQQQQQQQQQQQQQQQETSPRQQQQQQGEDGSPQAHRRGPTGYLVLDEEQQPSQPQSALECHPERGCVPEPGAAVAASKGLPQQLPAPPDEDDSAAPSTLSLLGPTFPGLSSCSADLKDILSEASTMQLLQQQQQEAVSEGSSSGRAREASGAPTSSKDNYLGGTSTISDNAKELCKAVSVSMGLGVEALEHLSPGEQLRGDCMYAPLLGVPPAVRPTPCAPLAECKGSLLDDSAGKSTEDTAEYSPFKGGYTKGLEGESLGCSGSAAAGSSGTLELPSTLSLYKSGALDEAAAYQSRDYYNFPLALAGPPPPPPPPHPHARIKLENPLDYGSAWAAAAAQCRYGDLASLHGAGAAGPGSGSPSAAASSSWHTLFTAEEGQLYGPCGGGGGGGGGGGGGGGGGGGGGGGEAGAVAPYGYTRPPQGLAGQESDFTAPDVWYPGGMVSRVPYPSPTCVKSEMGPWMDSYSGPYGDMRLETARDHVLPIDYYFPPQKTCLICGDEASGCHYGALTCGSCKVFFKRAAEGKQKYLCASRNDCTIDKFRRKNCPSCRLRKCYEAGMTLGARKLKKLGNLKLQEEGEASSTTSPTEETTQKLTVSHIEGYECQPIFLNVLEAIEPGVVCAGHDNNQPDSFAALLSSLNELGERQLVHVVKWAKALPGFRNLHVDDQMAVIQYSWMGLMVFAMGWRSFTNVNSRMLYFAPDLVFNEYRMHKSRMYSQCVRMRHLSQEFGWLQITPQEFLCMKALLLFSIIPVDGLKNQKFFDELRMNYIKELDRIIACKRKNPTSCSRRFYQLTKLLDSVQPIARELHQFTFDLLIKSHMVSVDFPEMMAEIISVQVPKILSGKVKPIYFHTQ
# AR = molecular target: T4, AR (Rattus norvegicus, UniProt P15207); experiment: PolarScreen AR Competitor binding affinity assay
# T4 construct: purchased Invitrogen
# T4 sequence (P15207 651-902 limits assumed): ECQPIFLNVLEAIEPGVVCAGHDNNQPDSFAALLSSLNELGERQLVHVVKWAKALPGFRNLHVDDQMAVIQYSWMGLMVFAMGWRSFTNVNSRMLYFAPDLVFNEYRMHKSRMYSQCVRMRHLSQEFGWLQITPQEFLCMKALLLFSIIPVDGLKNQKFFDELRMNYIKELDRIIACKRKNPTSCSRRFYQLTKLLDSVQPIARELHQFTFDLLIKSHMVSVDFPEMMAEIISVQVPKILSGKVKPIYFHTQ
# stickleback AR = test system: stickleback AR; design: method as in Lange et al. 2015; conditions: at 10 μM; ref Lange et al. 2015; cited from earlier work
# Androgen receptor [2] = conditions: ref Rostkowski et al. 2011, cited from earlier work
# Androgen receptor [3] = conditions: ref Rostkowski et al. 2011, cited from earlier work; remark: listed apart in the source
# GR [4] = molecular target: T5, GR (Homo sapiens, UniProt P04150); experiment: PolarScreen GR Competitor binding affinity assay; design: purchased Invitrogen; conditions: for binding affinity assay on isolated GR, result: in words, tested up to 10 μM
# T5 sequence (P04150 1-777): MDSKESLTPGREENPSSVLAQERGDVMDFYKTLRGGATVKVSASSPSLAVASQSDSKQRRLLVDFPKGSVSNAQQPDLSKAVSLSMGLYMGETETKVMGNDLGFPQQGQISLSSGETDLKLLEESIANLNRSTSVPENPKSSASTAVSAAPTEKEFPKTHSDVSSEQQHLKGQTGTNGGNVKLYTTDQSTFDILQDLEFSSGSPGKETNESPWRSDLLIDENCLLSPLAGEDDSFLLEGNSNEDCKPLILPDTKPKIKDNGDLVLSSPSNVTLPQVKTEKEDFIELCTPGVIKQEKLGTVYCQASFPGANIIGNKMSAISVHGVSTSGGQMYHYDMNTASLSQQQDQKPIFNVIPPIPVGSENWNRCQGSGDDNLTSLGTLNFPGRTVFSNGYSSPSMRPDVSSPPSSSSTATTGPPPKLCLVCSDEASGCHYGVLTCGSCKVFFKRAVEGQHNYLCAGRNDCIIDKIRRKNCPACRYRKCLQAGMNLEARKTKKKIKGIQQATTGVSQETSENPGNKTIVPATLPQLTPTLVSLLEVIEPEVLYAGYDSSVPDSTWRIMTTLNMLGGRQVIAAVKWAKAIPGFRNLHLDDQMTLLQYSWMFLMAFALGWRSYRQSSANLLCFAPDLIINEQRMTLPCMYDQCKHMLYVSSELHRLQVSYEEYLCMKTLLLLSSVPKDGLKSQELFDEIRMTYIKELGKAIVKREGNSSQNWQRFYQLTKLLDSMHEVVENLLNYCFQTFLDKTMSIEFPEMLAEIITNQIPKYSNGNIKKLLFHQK
# hERα-HeLa-9903 cells = experiment: Cell viability (resazurin) in hERα-HeLa-9903 cells; conditions: hERα-HeLa-9903, ERα agonist dose-response
# GR [5] = molecular target: T5, GR; experiment: MDA-kb2 GR reporter assay, antagonist setup (500 nM HC); format: cell-based; design: constitutively expressed high levels of functional GR and AR; host or cells: MDA-kb2
# TRα and TRβ [6] = experiment: GH3.TRE-Luc TR reporter assay, agonist setup; format: cell-based, rat; conditions: vs 0.1% DMSO
# AR-EcoScreen cells = experiment: Cell viability (resazurin) in AR-EcoScreen cells; conditions: agonist assay
# AroB transcription = conditions: 1 nM E2 alone; zebrafish embryos; ref Chung et al. 2011; cited from earlier work
# Glucocorticoid receptor = conditions: MDA-kb2 at 5 μM; ref Kolšek et al. 2014a; cited from earlier work
# Thyroid receptor = conditions: ZFL cell line; ref Zhou et al. 2017; cited from earlier work
# [7] = ref Sandborgh-Englund et al. 2006, cited from earlier work
# GR [8] = molecular target: T5, GR; experiment: MDA-kb2 GR reporter assay, agonist setup (with FLU); format: cell-based; design: constitutively expressed high levels of functional GR and AR; host or cells: MDA-kb2; conditions: 10 μM; vs 0.1% DMSO with 5 μM FLU
# [9] = 0.25 nM T3; read-out: TR antagonist IC50
compound,measurement,setting,value
"CC(C)(c1ccc(O)cc1)c1ccc(O)cc1 [BPA, bisphenol A, reference compound]",pIC50,TRα and TRβ [1]; read-out: TR antagonist IC50; 0.25 nM T3,4.38
"CC(C)(C)C(=O)C(Oc1ccc(Cl)cc1)n1ccnc1 (stereo not drawn) [Climbazole, 1-(4-Chlorophenoxy)-1-(imidazol-1-yl)-3,3-dimethylbutan-2-one]","TR antagonist activity, call",TRα and TRβ [1]; GH3.TRE-Luc,Antagonist
same,concentration with TR antagonist activity,TRα and TRβ [1]; GH3.TRE-Luc,10 µM
same,inhibition at 50 µM,firefly luciferase,~12%
same,"effect on ER, yeast based assay",Estrogen receptor-α,No effect ([Westlund and Yargeau 2017])
same,higher ERα RTA than vehicle control,human (h) ERα; 10 μM,> 30.0% and 36.6%
same,higher ERα RTA than vehicle control,human (h) ERα; 100 μM,94%
same,"ERα agonist activity, call",human (h) ERα; hERα-HeLa-9903,Agonist
same,concentration with ERα agonist activity,human (h) ERα; hERα-HeLa-9903,10 to 100 µM
"Oc1ccc(Cl)cc1Cc1ccccc1 [Chlorophene, 2-Benzyl-4-chlorophenol]",lower AR RTA than spike-in control,"human (h)AR; 10 μM, vs 0.1% DMSO with 500 pM DHT",> 90%
same,pIC50,"human (h)AR; AR antagonist IC50, AR-EcoScreen, 500 pM DHT",5.63 and 5.62
same,"AR antagonist activity, call",human (h)AR; AR-EcoScreen,Antagonist
same,pEC50,AR,5.67
same,"binding affinity assay on isolated AR, result","AR; in words, tested up to 10 μM",positive
same,"TR antagonist activity, call",TRα and TRβ [1]; GH3.TRE-Luc,Antagonist
same,concentration with TR antagonist activity,TRα and TRβ [1]; GH3.TRE-Luc,10 µM
same,inhibition at 50 µM,firefly luciferase,~12%
same,effect on stickleback AR,stickleback AR,Antagonist at 10μM in a stickleback AR reporter assay ([Lange et al. 2015])
same,pIC50,"Androgen receptor [2]; antiandrogenic, read-out: anti-YAS IC50",6.27
same,"effect on AR, yeast based assay",Androgen receptor [2],Antagonist ([Rostkowski et al. 2011])
same,pIC50,"Androgen receptor [3]; antiandrogenic, read-out: AR-CALUX IC50",6.10
same,effect on AR in AR-CALUX assay,Androgen receptor [3],Antagonist in AR-CALUX assay ([Rostkowski et al. 2011])
same,"binding affinity assay on isolated GR, result",GR [4],positive
same,pEC50,"GR [4]; read-out: binding to isolated GR, EC50",4.98
same,highest tested concentration as limited by precipitation and cytotoxicity,hERα-HeLa-9903 cells,50 µM
same,"GR activity in MDA-kb2 cell line, call",GR [5]; 10 μM,Negative
"Oc1c(Br)cc(Cl)cc1Cc1cc(Cl)cc(Br)c1O [Bromochlorophene, 2,2’-methylenebis(6-bromo-4-chlorophenol)]",baseline TR-mediated transcriptional activity lower than vehicle control (agonist setup),TRα and TRβ [6]; 1 μM,> 50%
same,baseline TR-mediated transcriptional activity lower than vehicle control (agonist setup),TRα and TRβ [6]; 10 μM,> 50%
same,pIC50,TRα and TRβ [1]; [9],6.30 and 6.29
same,lower TR RTA than spike-in control,TRα and TRβ [1]; 10 μM; vs 0.1% DMSO with 0.25 nM T3,92.9%
same,"TR antagonist activity, call",TRα and TRβ [1]; GH3.TRE-Luc,Antagonist
same,inhibition of firefly luciferase luminescence signal,firefly luciferase; 50 μM,26.1%
same,highest noncytotoxic concentration,AR-EcoScreen cells,2.5 µM
"C[C@]12CC[C@@H]3c4ccc(O)cc4CC[C@H]3[C@@H]1CC[C@@H]2O [E2, 17β-estradiol, reference compound]",increase in AroB transcription,AroB transcription,8 fold
"Oc1cc(Cl)ccc1Oc1ccc(Cl)cc1Cl [Triclosan, 5-Chloro-2-(2,4-dichlorophenoxy) phenol]",baseline TR-mediated transcriptional activity lower than vehicle control (agonist setup),TRα and TRβ [6]; 10 μM,> 50%
same,pIC50,TRα and TRβ [1]; [9],5.44
same,lower TR RTA than spike-in control,TRα and TRβ [1]; 5 μM; vs 0.1% DMSO with 0.25 nM T3,71.9%
same,"TR antagonist activity, call",TRα and TRβ [1]; GH3.TRE-Luc,Antagonist
same,concentration with TR antagonist activity,TRα and TRβ [1]; GH3.TRE-Luc,5 µM
same,inhibition at 50 µM,firefly luciferase,~12%
same,effect on GR,Glucocorticoid receptor,No effect in MDA-kb2 at 5μM ([Kolšek et al. 2014a])
same,effect on TR,Thyroid receptor,No effect in ZFL cell line ([Zhou et al. 2017])
same,effect on stickleback AR,stickleback AR,Antagonist at 10μM in stickleback AR reporter assay ([Lange et al. 2015])
same,peak plasma concentration,"[7]; 10 healthy volunteers, single dose of mouthwash",0.5 to 1.2 µM
same,preexperiment median plasma baseline concentration,[7]; 10 healthy volunteers,5.5 nM
same,time of plasma peak after exposure,[7],up to 3 h
same,pEC50,GR [4],4.56
same,"binding affinity assay on isolated GR, result",GR [4],positive
same,lower GR RTA than vehicle control (agonist assay),GR [8],53.6%
same,lower GR RTA than spike-in control,"GR [5]; 10 μM, vs 0.1% DMSO with 500 nM HC",53.2%
same,"GR antagonist activity, call",GR [5]; MDA-kb2,Antagonist
